{"source": "patent US20050064019A1", "about": "“Impregnated, flexible, rawhide pet chews containing antimicrobially active chlorhexdine” (priority 2003, published 2005)", "origin": "cited, not measured here", "key": {"[1]": {"details": "two years continuous use"}, "bacterial spores": {"system": "bacterial spores", "details": "except at elevated temperatures"}, "[2]": {"details": "rat, in vivo"}}}
{"compound": "[H]/N=C(\\N/C(=N/[H])NCCCCCCNC(=N)NC(=N)Nc1ccc(Cl)cc1)Nc1ccc(Cl)cc1", "note": "[chlorhexidine]", "values": [{"measurement": "Side effects in long term trials", "setting": "[1]", "value": "no systemic or serious local side effects"}, {"measurement": "Activity against bacterial spores", "setting": "bacterial spores", "value": "inactive"}, {"measurement": "Tolerance of chlorhexidine in drinking water", "setting": "[2]", "value": "without detectable interference with growth and reproduction"}, {"measurement": "Solubility in water", "value": "practically insoluble in water"}, {"measurement": "Activity against fungal spores", "setting": "fungal spores", "value": "inactive"}]}
